Reference: ChEMBL document CHEMBL1240402 (2010)
The source made the active and inactive calls. The calls are words filed in the database; no cut-off is given here.

How the values were obtained:
Type in all cases: functional
Clostridium perfringens [1] = test: Antimicrobial activity against Clostridium perfringens LFM1 assessed as resistance breakpoint by DIN-standardized microdilution method
Clostridium perfringens [2] = test: Antimicrobial activity against Clostridium perfringens LFM1 assessed as resistance breakpoint by DANMAP method
Clostridium perfringens [3] = test: Antimicrobial activity against Clostridium perfringens LFM1 assessed as resistant breakpoint by EUCAST method

Compound | Activity (Clostridium perfringens [1]) | Activity (Clostridium perfringens [2]) | Activity (Clostridium perfringens [3]) | Activity (Clostridium perfringens [3]; record 2)
CCC[C@@H]1C[C@@H](C(=O)N[C@@H]([C@H]2O[C@H](SC)[C@H](O)[C@@H](O)[C@H]2O)[C@H](C)Cl)N(C)C1 | inactive |  |  | 
CC[C@H]1OC(=O)[C@H](C)[C@@H](O[C@H]2C[C@@](C)(OC)[C@@H](O)[C@H](C)O2)[C@H](C)[C@@H](O[C@@H]2O[C@H](C)C[C@H](N(C)C)[C@H]2O)[C@](C)(O)C[C@@H](C)C(=O)[C@H](C)[C@@H](O)[C@]1(C)O | inactive |  |  | 
O=C(N[C@H](CO)[C@H](O)c1ccc([N+](=O)[O-])cc1)C(Cl)Cl |  | inactive |  | 
CS(=O)(=O)c1ccc([C@@H](O)[C@@H](CF)NC(=O)C(Cl)Cl)cc1 [FLORFENICOL] |  | inactive |  | 
CC(=O)NC[C@H]1CN(c2ccc(N3CCOCC3)c(F)c2)C(=O)O1 [LINEZOLID] | >4 mg/L | >4 mg/L | inactive | >4 mg/L
